In brackets after ≈: the same amount, converted by molar mass. Bridge positions count the residues as written; N and C are the ends. Square brackets hold non-standard residues; d marks the D form. Ends that are not written are not given here. Nle = CCCC[C@H](N)C(=O)O
Legend:
Candida albicans = test: fungicidal activity against Candida albicans, comparison with EP-A-0 629 347 peptides (Example 7); type: cell-based; conditions: C. albicans, I (tenfold steps)
Experimental: (§1) In this example an in vitro test was performed to compare the bactericidal and fungicidal activity of the peptides according to the invention with peptides described in EP-A-0 629 347. The peptide according to the invention used was peptide 4, and the peptides according to EP-A-0 629 347 called Morinaga 10, Morinaga 11, Morinaga 12, and Morinaga 13.
(§2) The peptides were incubated with E. coli O14 and Candida albicans. Two concentrations of C. albicans yeast cells were tested, 5·10^6 and 5·10^3 per ml. Different concentrations of the peptides were tested.
(§3) After the incubation, samples were taken for bacterial plating. Serial dilutions of tenfold steps were used in the experiments marked with I in table 5 and of twofold steps in the experiments marked with II.

E. coli O14 = test: bactericidal activity against E. coli O14, comparison with EP-A-0 629 347 peptides (Example 7); type: cell-based
Experimental: as §1, §2, §3

E. coli [1] = test: MMC99% of modified peptides, E. coli (Example 26); type: cell-based; conditions: BHI diluted 1/100, pH approximately 6.7-6.9 (Table 22)
Experimental: (§4) In the examples, the minimal microbicidal concentrations (MMC) and minimal inhibitory concentrations (MIC) were determined as follows, unless otherwise specified in the examples. Bacterial or fungal strains were cultured in BHI medium over night at 37° C. A volume of the culture was transferred to a new tube with BHI and incubated for two more hours. Thereafter the cells were spun down and the pellet was suspended in BHI medium diluted 1/100 (1% BHI). The concentration of bacterial or fungal cells was spectrophotometrically determined at 650 nm. The microbial concentrations were also determined by viable counts. Peptides serially diluted in 1% BHI by twofold or tenfold steps were added in triplicate to the wells of a microtiterplate (200 μl per well). The bacterial or fungal cell solutions were added in 10 μl volumes to give a final concentration of approximately 1-5×10^5 cells per ml in the well. The microplate was incubated at 37° C. in a humid chamber for two hours. Thereafter 5 μl was taken from each well and added as a drop onto a blood agar plate and incubated over night at 37° C. The microplate was incubated for another 20 hours at 37° C. and thereafter analysed spectrophotometrically at 650 nm in a microplate reader (Emax, Molecular Devices, USA). The concentration of peptide causing a 99% reduction of the inoculum after 2 hours of incubation was defined as the MMC99%. The MIC value was defined as the concentration giving no increase in the absorbance value above the background level after 20 hours of incubation.
(§5) In this example the fungicidal, and bactericidal effects of the different peptides obtained in example 22 were studied. C. albicans, E. coli and S. aureus, respectively, were incubated in BHI medium diluted 1/100, with a pH of approximately 6.7-6.9. The concentration of each peptide needed to kill 99% of the microorganisms (MMC99%) was determined.

C. albicans [2] = test: MMC99% of modified peptides, C. albicans (Example 26); type: cell-based; conditions: BHI diluted 1/100, pH approximately 6.7-6.9 (Table 22)
Experimental: as §4, §5

S. aureus [3] = test: MMC99% of modified peptides, S. aureus (Example 26); type: cell-based; conditions: BHI diluted 1/100, pH approximately 6.7-6.9 (Table 22)
Experimental: as §4, §5

C. albicans [4] = test: microbe, parasite or virus in culture; type: cell-based; conditions: C. albicans, BHI diluted 1/100, twofold dilutions from 20 μg/ml
Experimental: as §4
Also in this example one of the peptides according to the invention—this time the peptide with SEQ. ID. NO. 4, was compared to a conventional fungicide, amphotericin. The antifungal activity against C. albicans was studied. Twofold serial dilutions with a starting concentration of 20 μg/ml were used. BHI diluted 1/100 was used as growth medium.

C. albicans [5] = test: MMC99% of modified peptides, C. albicans (Example 25); type: cell-based; conditions: BHI diluted 1/100, pH approximately 6.7-6.9 (Table 21)
Experimental: as §4
as §5, with “examples 18-21” for “example 22”

E. coli [6] = test: MMC99% of modified peptides, E. coli (Example 25); type: cell-based; conditions: BHI diluted 1/100, pH approximately 6.7-6.9 (Table 21)
Experimental: as §4
as §5, with “examples 18-21” for “example 22”

S. aureus [7] = test: MMC99% of modified peptides, S. aureus (Example 25); type: cell-based; conditions: BHI diluted 1/100, pH approximately 6.7-6.9 (Table 21)
Experimental: as §4
as §5, with “examples 18-21” for “example 22”

E. coli O6K5 = test: microbicidal activity MMC99%, E. coli O6K5 (Example 28); type: cell-based; conditions: E. coli O6K5 (Table 24)
Experimental: as §4
(§6) In this example the microbicidal activity of eight of the peptides according to the invention was studied, and tested against E. coli O6K5 and C. albicans.
(§7) The concentration of each peptide needed to kill 99% of the microorganisms (MMC99%) was determined.

C. albicans [8] = test: microbicidal activity MMC99%, C. albicans (Example 28); type: cell-based; conditions: C. albicans (Table 24)
Experimental: as §4, §6, §7

C. albicans (ATCC 64549) = test: microbe, parasite or virus in culture; conditions: for MMC99%: C. albicans ATCC 64549, 2×10^5 cells/ml, BHI diluted 1/100; for MIC: Candida albicans, ATCC64549
Experimental: as §4
In this example the fungicidal activity of one of the peptides according to the invention, the peptide with SEQ. ID. NO. 7, was compared to the conventional antifungal agents flucytosine and fluconazole, and also to human lactoferrin (hLF). The antifungal agents were tested on C. albicans (ATCC 64549) in a concentration of 2×10^5 cells/ml. The tests were performed in BHI medium diluted 1/100.

K. pneumoniae = test: killing of bacteria at fixed peptide concentration, K. pneumoniae (Example 12); type: cell-based; conditions: peptide 25 μg/ml
Experimental: (§8) In this example, the peptides according to the invention were used to study the effect on the killing of different bacteria.
(§9) The peptides were used at a concentration of 25 μg/ml.

[9] = test system: C. albicans yeast cells (ATCC64549); test: killing and growth inhibition of C. albicans at pH 4.5 (Example 11); type: cell-based; set-up: key to C. albicans inhibition (OD650): + = no increase in OD650 is seen; − = OD650 continues to increase; conditions: pH 4.5, 1% BHI, 25 μg/ml of the peptide
Experimental: C. albicans yeast cells (ATCC64549) were incubated for 2 hours at pH 4.5 in BHI medium diluted to 1% of the original concentration containing 25 µg/ml of the peptide. Thereafter the fungal solutions were cultured on blood agar plates. OD650 was measured after incubation during an additional 18 hours. The fungicidal effect of the peptides on C. albicans was determined as the ability of the peptide to kill 100% and 99%, respectively, of the fungus, while the growth inhibitory effect was determined by measuring the OD650. An inhibitory effect existed when no increase in OD650 was recorded.

S. epidermis = test: killing of bacteria at fixed peptide concentration, S. epidermis (Example 12); type: cell-based; conditions: peptide 25 μg/ml
Experimental: as §8, §9

E. faecalis = test: killing of bacteria at fixed peptide concentration, E. faecalis (Example 12); type: cell-based; conditions: peptide 25 μg/ml
Experimental: as §8, §9

S. aureus [10] = test: killing of bacteria at fixed peptide concentration, S. aureus (Example 12); type: cell-based; conditions: peptide 25 μg/ml
Experimental: as §8, §9

P. aeruginosa = test: killing of bacteria at fixed peptide concentration, P. aeruginosa (Example 12); type: cell-based; conditions: peptide 25 μg/ml
Experimental: as §8, §9

multiresistant S. aureus = test: bactericidal activity, multiresistant S. aureus (Example 18); type: cell-based; conditions: multiresistant S. aureus 5.0×10^5 per ml
Experimental: In this example the bactericidal activity of two of the peptides according to the invention was studied in a test with a multiresistant S. aureus. A bacterial solution with a concentration of 5.0×10^5 S. aureus bacterial per ml was used. The concentration of each peptide needed to kill 99% of the bacteria (MMC99%) was determined after 2 hours and after 24 hours of incubation at 37° C.

E. coli O6 = type: cell-based
Experimental: as §4
(§10) C. albicans (ATCC64549) and E. coli O6, respectively, were incubated with the different peptides. The experiments were performed with 1, 10, 25 and 100 μg/ml of peptide.

C. albicans (ATCC64549) = type: cell-based
Experimental: as §4, §10

[11] = E. coli O14, I: serial dilutions of tenfold steps

Q-W-Q-R [Morinaga 12]
Concentration of agent for 100% killing (Candida albicans; 5 · 10^3 yeast cells per ml): >2000 µg/mL
Concentration of agent for 100% killing (Candida albicans; 5 · 10^6 yeast cells per ml): >2000 µg/mL
Concentration of agent for 100% killing (E. coli O14; [11]): >500 µg/mL

W-Q-R [Morinaga 13]
Concentration of agent for 100% killing (Candida albicans; 5 · 10^3 yeast cells per ml): >2000 µg/mL
Concentration of agent for 100% killing (Candida albicans; 5 · 10^6 yeast cells per ml): >2000 µg/mL
Concentration of agent for 100% killing (E. coli O14; [11]): >500 µg/mL

F-Q-W-Q-R [Morinaga 11]
Concentration of agent for 100% killing (Candida albicans; 5 · 10^3 yeast cells per ml): >2000 µg/mL
Concentration of agent for 100% killing (Candida albicans; 5 · 10^6 yeast cells per ml): >2000 µg/mL
Concentration of agent for 100% killing (E. coli O14; [11]): >500 µg/mL

C-F-A-W-Q-R-A-M-R-K-V-R (CFAWQRAMRKVR) [SEQ. ID. NO. 94]
MMC99% (E. coli [1]): 6
MMC99% (C. albicans [2]): 12
MMC99% (S. aureus [3]): 6

SEQ. ID. NO. 97: listed under the third and fourth embodiments; sequence only in the appended sequence listing (CFALKKAMKKVR)
MMC99% (E. coli [1]): 6
MMC99% (C. albicans [2]): 12
MMC99% (S. aureus [3]): 6

C[C@@H]1[C@H](O)[C@@H](C)/C=C/C=C/C=C/C=C/C=C/C=C/C=C/[C@H](O[C@@H]2O[C@H](C)[C@@H](O)[C@H](N)[C@@H]2O)C[C@@H]2O[C@](O)(C[C@@H](O)C[C@@H](O)[C@H](O)CC[C@@H](O)C[C@@H](O)CC(=O)O[C@H]1C)C[C@H](O)[C@H]2C(=O)O [Amphotericin, amphotericin, reference compound]
MMC99% (C. albicans [4]): 2.5 µg/mL
MIC (C. albicans [4]; Candida albicans, read-out: MIC): 0.6 µg/mL (≈ 0.649 µM)

C-F-Q-W-Nle-R-N-M-R-K-V-R (CFQW[Nle]RNMRKVR) [SEQ. ID. NO. 88]
MMC99% (C. albicans [5]): 6
MMC99% (E. coli [6]): 12
MMC99% (S. aureus [7]): 3.5
MMC99% (E. coli O6K5): 5
MMC99% (C. albicans [8]): 10

C-F-Q-L-Q-K-N-M-K-K-V-R (CFQLQKNMKKVR) [SEQ. ID. NO. 95]
MMC99% (E. coli [1]): 6
MMC99% (C. albicans [2]): 12
MMC99% (S. aureus [3]): 6

SEQ. ID. NO. 55: modification of SEQ. ID. NO. 7 wherein the Asp in position 9 is substituted with a Glu (TKAFKWQREMRKVR; lactam 5-9)
MMC99% (E. coli O6K5): 5
MMC99% (C. albicans [8]): 5

C-F-A-L-K-K-A-M-K-K-V-R (CFALKKAMKKVR) [SEQ. ID. NO. 96]
MMC99% (E. coli [1]): 6
MMC99% (C. albicans [2]): 12
MMC99% (S. aureus [3]): 12

C-F-A-W-K-R-N-M-R-K-V-R (CFAWKRNMRKVR) [SEQ. ID. NO. 93]
MMC99% (E. coli O6K5): 5
MMC99% (E. coli [1]): 6
MMC99% (C. albicans [2]): 12
MMC99% (S. aureus [3]): 6
MMC99% (C. albicans [8]): 5

OC(Cn1cncn1)(Cn1cncn1)c1ccc(F)cc1F [Fluconazole, fluconazole, reference compound]
MMC99% (C. albicans (ATCC 64549)): >500 µg/mL
MIC (C. albicans (ATCC 64549)): > 500 µg/mL

F-Q-W-Q-R-N (FQWQRN) [Morinaga 10]
Concentration of agent for 100% killing (Candida albicans; 5 · 10^3 yeast cells per ml): >2000 µg/mL
Concentration of agent for 100% killing (Candida albicans; 5 · 10^6 yeast cells per ml): >2000 µg/mL
Concentration of agent for 100% killing (E. coli O14; [11]): >500 µg/mL
Concentration of agent for 100% killing (E. coli O14; E. coli O14, II: serial dilutions of twofold steps): 1000 µg/mL

KCFQWQRNMRKVR [Peptide 48]
killing of bacteria: K. pneumoniae (K. pneumoniae): + (+ = 99% of the bacteria are killed)
C. albicans inhibition (OD650) ([9]; OD650 after an additional 18 hours): +
C. albicans killing: 99% ([9]; 2 hours): + (+ = 100/99% of the bacteria are killed)
C. albicans killing: 100% ([9]; 2 hours): + (+ = 100/99% of the bacteria are killed)
killing of bacteria: S. epidermis (S. epidermis): + (+ = 99% of the bacteria are killed)
killing of bacteria: E. faecalis (E. faecalis): + (+ = 99% of the bacteria are killed)
killing of bacteria: S. aureus (S. aureus [10]): + (+ = 99% of the bacteria are killed)
killing of bacteria: P. aeruginosa (P. aeruginosa): + (+ = 99% of the bacteria are killed)
MMC99% (multiresistant S. aureus; 2 hours at 37° C.): 5.0 µg/mL
MMC99% (multiresistant S. aureus; 24 hours at 37° C.): ≦0.32 μg/ml
MMC99% (E. coli O6; E. coli O6, tested at 1, 10, 25 and 100 μg/ml of peptide): 10 µg/mL
MIC (E. coli O6; O6): 10 µg/mL
MIC (C. albicans (ATCC64549); ATCC64549): 10 µg/mL
MMC99% (C. albicans (ATCC64549); C. albicans, tested at 1, 10, 25 and 100 μg/ml of peptide): 10 µg/mL

C-F-Q-W-K-R-N-M-R-K-V-R (CFQWKRNMRKVR) [SEQ. ID. NO. 91]
MMC99% (E. coli O6K5): 5
MMC99% (E. coli [1]): 6
MMC99% (C. albicans [2]): 6
MMC99% (S. aureus [3]): 6
MMC99% (C. albicans [8]): 5

Nc1[nH]c(=O)ncc1F [Flucytosine, flucytosine, reference compound]
MMC99% (C. albicans (ATCC 64549)): >500 µg/mL
MIC (C. albicans (ATCC 64549)): 250 µg/mL (≈ 1940 µM)

Reference: US7803757B2, “Peptides based on the sequence of human lactoferrin and their use” (PharmaSurgics in Sweden AB, priority 1998, dated 2010)
